Measured values published in US8163921B2, “Hepatitis C virus inhibitors” (Bristol-Myers Squibb Company, priority 2008, dated 2012).
Where two headings read alike, the source gives them in different places.

How the values were obtained:
[1] = biological target: T1, HCV NS3/4A protease complex, BMS strain (UniProt P27958, C1454S/C1711G, species not given); test: FRET peptide assay to monitor HCV NS3/4A proteolytic activity (BMS strain); format: biochemical, HCV genotype 1a; details: read-out: IC50 Range, HCV NS3/4A enzyme assay
T1 construct: other: HCV NS3/4A enzyme assay; class symbols; numeric values; fused on or other part: three-lysine solubilising tail at the C-terminus of NS4A; purified on Ni-NTA from the pET21b vector (His tag implied)
Description: HCV NS3 protease complexes, derived from the BMS strain, H77 strain or J4L6S strain, were generated, as described below. These purified recombinant proteins were generated for use in a homogeneous assay (see below) to provide an indication of how effective compounds of the present disclosure would be in inhibiting HCV NS3 proteolytic activity.
Serum from an HCV-infected patient was obtained from Dr. T. Wright, San Francisco Hospital. An engineered full-length cDNA (compliment deoxyribonucleic acid) template of the HCV genome (BMS strain) was constructed from DNA fragments obtained by reverse transcription-PCR (RT-PCR) of serum RNA (ribonucleic acid) and using primers selected on the basis of homology between other genotype 1a strains. From the determination of the entire genome sequence, a genotype 1a was assigned to the HCV isolate according to the classification of Simmonds et al. (See P Simmonds, K A Rose, S Graham, S W Chan, F McOmish, B C Dow, E A Follett, P L Yap and H Marsden, J. Clin. Microbiol., 31(6), 1493-1503 (1993)). […] The infectious clones, H77 (1a genotype) and J4L6S (1b genotype) were obtained from R. Purcell (NIH) and the sequences are published in Genbank (AAB67036, see Yanagi, M., Purcell, R. H., Emerson, S. U. and Buldi, J. Proc. Natl. Acad. Sci. U.S.A. 94(16),8738-8743 (1997); AF054247, see Yanagi, M., St Claire, M., Shapiro, M., Emerson, S. U., Purcell, R. H. and Bukh, J, Virology 244 (1), 161-172. (1998)).
NS3/4A protease complex-containing fractions were pooled and loaded on a desalting column Superdex-S200 pre-equilibrated with buffer D (25 mM HEPES, pH 7.5, 20% glycerol, 300 mM NaCl, 0.2% TritonX-100, 10 mM βMB). Sample was loaded at a flow rate of 1 mL/min. NS3/4A protease complex-containing fractions were pooled and concentrated to approximately 0.5 mg/ml. The purity of the NS3/4A protease complexes, derived from the BMS, H77 and J4L6S strains, were judged to be greater than 90% by SDS-PAGE and mass spectrometry analyses. The enzyme was stored at −80° C., thawed on ice and diluted prior to use in assay buffer.
The purpose of this in vitro assay was to measure the inhibition of HCV NS3 protease complexes, derived from the BMS strain, H77 strain or J4L6S strain, as described above, by compounds of the present disclosure. This assay provides an indication of how effective compounds of the present disclosure would be in inhibiting HCV NS3 proteolytic activity.
In order to monitor HCV NS3/4A protease activity, an NS3/4A peptide substrate was used. The substrate was RET S1 (Resonance Energy Transfer Depsipeptide Substrate; AnaSpec, Inc. cat #22991)(FRET peptide), described by Taliani et al. in Anal. Biochem. 240(2):60-67 (1996). The sequence of this peptide is loosely based on the NS4A/NS4B natural cleavage site for the HCV NS3 protease except there is an ester linkage rather than an amide bond at the cleavage site. The peptide also contains a fluorescence donor, EDANS, near one end of the peptide and an acceptor, DABCYL, near the other end. The fluorescence of the peptide is quenched by […] resonance energy transfer (RET) between the donor and the acceptor, but as the NS3 protease cleaves the peptide the products are released from RET quenching and the fluorescence of the donor becomes apparent.
The peptide substrate was incubated with one of the three recombinant NS3/4A protease complexes, in the absence or presence of a compound of the present disclosure. The inhibitory effects of a compound were determined by monitoring the formation of fluorescent reaction product in real time using a Cytofluor Series 4000.
Assay buffer: 50 mM HEPES, pH 7.5; 0.15 M NaCl; 0.1% Triton; 15% Glycerol; 10 mM βME. Substrate: 2 μM final concentration (from a 2 mM stock solution in DMSO stored at −20° C.). HCV NS3/4A protease type 1a (1b), 2-3 nM final concentration (from a 5 μM stock solution in 25 mM HEPES, pH 7.5, 20% glycerol, 300 mM NaCl, 0.2% Triton-X100, 10 mM βME). […]

[2] = tested on: HCV replicon in HUH-7 cells; test: HCV replicon FRET assay; format: cell-based, HCV strain 1b; details: Hepatitis C virus
Description: An HCV replicon whole cell system was established as described by Lohmann V, Korner F, Koch J, Herian U, Theilmann L, Bartenschlager R., Science 285(5424):110-3 (1999). This system enabled us to evaluate the effects of our HCV Protease compounds on HCV RNA replication. Briefly, using the HCV strain 1b sequence described in the Lohmann paper (Assession number:AJ238799), an HCV cDNA was synthesized by Operon Technologies, Inc. (Alameda, Calif.), and the full-length replicon was then assembled in plasmid pGem9zf(+) (Promega, Madison, Wis.) using standard molecular biology techniques. The replicon consists of (i) the HCV 5′ UTR fused to the first 12 amino acids of the capsid protein, (ii) the neomycin phosphotransferase gene (neo), (iii) the IRES from encephalomyocarditis virus (EMCV), and (iv) HCV NS3 to NS5B genes and the HCV 3′ UTR. Plasmid DNAs were linearized with ScaI and RNA transcripts were synthesized in vitro using the T7 MegaScript transcription kit (Ambion, Austin, Tex.) according to manufacturer's directions. In vitro transcripts of the eDNA were transfected into the human hepatoma cell line, HUH-7. […] Resulting cell lines were characterized for positive and negative strand RNA production and protein production over time.
The HCV replicon FRET assay was developed to monitor the inhibitory effects of compounds described in the disclosure on HCV viral replication. HUH-7 cells, constitutively expressing the HCV replicon, were grown in Dulbecco's Modified Eagle Media (DMEM) (Gibco-BRL) containing 10% Fetal calf serum (FCS) (Sigma) and 1 mg/ml G418 (Gibco-BRL). Cells were seeded the night before (1.5×10^4 cells/well) in 96-well tissue-culture sterile plates. Compound and no compound controls were prepared in DMEM containing 4% FCS, 1:100 Penicillin/Streptomysin (Gibco-BRL), 1:100 L-glutamine and 5% DMSO in the dilution plate (0.5% DMSO final concentration in the assay). Compound/DMSO mixes were added to the cells and incubated for 4 days at 37° C. After 4 days, cells were first assessed for cytotoxicity using alamar Blue (Trek Diagnotstic Systems) for a CC50 reading. The toxicity of compound (CC50) was determined by adding 1/10th volume of alamar Blue to the media incubating the cells. After 4 h, the fluorescence signal from each well was read, with an excitation wavelength at 530 nm and an emission wavelength of 580 nm, using the Cytofluor Series 4000 (Perspective Biosystems). Plates were then rinsed thoroughly with Phosphate-Buffered Saline (PBS) (3 times 150 μl).

[3] = Huh-7, HCV replicon cell assay, numeric values, read-out: EC50 Range

Compound | IC50 ([1]; class symbols) | EC50 ([2]; Huh-7, read-out: EC50 Range) | IC50 ([1]; numeric values) | EC50 [2, 3]
C=C[C@@H]1C[C@]1(NC(=O)[C@@H]1C[C@@H](Oc2ncc(OC)c3ccc(Cl)cc23)CN1C(=O)[C@@H](Nc1nc(-c2ccc(C(F)(F)F)cc2)cs1)C(C)(C)C)C(=O)NS(=O)(=O)C1CC1 [Example 10, (2S,4R)-4-(7-chloro-4-methoxyisoquinolin-1-yloxy)-N-((1R,2S)-1-(cyclopropylsulfonylcarbamoyl)-2-vinylcyclopropyl)-1-((S)-3,3-dimethyl-2-(4-(4-(trifluoromethyl)phenyl)thiazol-2-ylamino)butanoyl)pyrrolidine-2-carboxamide] | 1 to 20 nM | 1 to 50 nM |  | 
C=C[C@@H]1C[C@]1(NC(=O)[C@@H]1C[C@@H](Oc2ncc(OC)c3ccc(Cl)cc23)CN1C(=O)[C@@H](Nc1nc(-c2ccc3ccccc3c2)cs1)C(C)(C)C)C(=O)NS(=O)(=O)C1CC1 [Example 11] | 1 to 20 nM | 1 to 50 nM |  | 
C=C[C@@H]1C[C@]1(NC(=O)[C@@H]1C[C@@H](Oc2ncc(OC)c3ccc(Cl)cc23)CN1C(=O)[C@@H](Nc1nc(-c2ccc(OC)cc2)c(CC)s1)C(C)(C)C)C(=O)NS(=O)(=O)C1CC1 [Example 12] | 1 to 20 nM | 1 to 50 nM |  | 
C=C[C@@H]1C[C@]1(NC(=O)[C@@H]1C[C@@H](Oc2ncc(OC)c3ccc(Cl)cc23)CN1C(=O)[C@@H](Nc1nc(-c2ccc(F)cc2F)cs1)C(C)(C)C)C(=O)NS(=O)(=O)C1CC1 [Example 13] | 1 to 20 nM | 1 to 50 nM |  | 
C=C[C@@H]1C[C@]1(NC(=O)[C@@H]1C[C@@H](Oc2ncc(OC)c3ccc(Cl)cc23)CN1C(=O)[C@@H](Nc1nc(-c2ccccn2)cs1)C(C)(C)C)C(=O)NS(=O)(=O)C1CC1 [Example 14] | 1 to 20 nM | 1 to 50 nM |  | 
C=C[C@@H]1C[C@]1(NC(=O)[C@@H]1C[C@@H](Oc2ncc(OC)c3ccc(Cl)cc23)CN1C(=O)[C@@H](Nc1nc(-c2cccnc2)cs1)C(C)(C)C)C(=O)NS(=O)(=O)C1CC1 [Example 15] | 1 to 20 nM | 1 to 50 nM |  | 
C=C[C@@H]1C[C@]1(NC(=O)[C@@H]1C[C@@H](Oc2ncc(OC)c3ccc(Cl)cc23)CN1C(=O)[C@@H](Nc1nc(-c2ccncc2)cs1)C(C)(C)C)C(=O)NS(=O)(=O)C1CC1 [Example 16] |  |  | 1 nM | 6.57 nM
C=C[C@@H]1C[C@]1(NC(=O)[C@@H]1C[C@@H](Oc2ncc(OC)c3ccc(Cl)cc23)CN1C(=O)[C@@H](Nc1nc(-c2ccc(OC(F)(F)F)cc2)cs1)C(C)(C)C)C(=O)NS(=O)(=O)C1CC1 [Example 17] |  |  | 11 nM | 8.95 nM
C=C[C@@H]1C[C@]1(NC(=O)[C@@H]1C[C@@H](Oc2ncc(OC)c3ccc(Cl)cc23)CN1C(=O)[C@@H](Nc1nc(-c2ccc(Br)cc2)c(Br)s1)C(C)(C)C)C(=O)NS(=O)(=O)C1CC1 [Example 19] | 1 to 20 nM | 1 to 50 nM |  | 
C=C[C@@H]1C[C@]1(NC(=O)[C@@H]1C[C@@H](Oc2ncc(OC)c3ccc(Cl)cc23)CN1C(=O)[C@@H](Nc1nc(-c2ccccc2)cs1)C(C)(C)C)C(=O)NS(=O)(=O)C1CC1 [Example 20] |  |  | 3 nM | 3.9 nM
C=C[C@@H]1C[C@]1(NC(=O)[C@@H]1C[C@@H](Oc2ncc(OC)c3ccc(Cl)cc23)CN1C(=O)[C@@H](Nc1nc(-c2ccc(C#N)cc2)cs1)C(C)(C)C)C(=O)NS(=O)(=O)C1CC1 [Example 21] | 1 to 20 nM | 1 to 50 nM |  | 
C=C[C@@H]1C[C@]1(NC(=O)[C@@H]1C[C@@H](Oc2ncc(OC)c3ccc(Cl)cc23)CN1C(=O)[C@@H](Nc1nc(-c2cc(C(F)(F)F)cc(C(F)(F)F)c2)cs1)C(C)(C)C)C(=O)NS(=O)(=O)C1CC1 [Example 22] | 1 to 20 nM | 1 to 50 nM |  | 
C=C[C@@H]1C[C@]1(NC(=O)[C@@H]1C[C@@H](Oc2ncc(OC)c3ccc(Cl)cc23)CN1C(=O)[C@@H](Nc1nc(-c2ccc(C)cc2)cs1)C(C)(C)C)C(=O)NS(=O)(=O)C1CC1 [Example 23] | 20 to 200 nM | 1 to 50 nM |  | 
C=C[C@@H]1C[C@]1(NC(=O)[C@@H]1C[C@@H](Oc2ncc(OC)c3ccc(Cl)cc23)CN1C(=O)[C@@H](Nc1nc(-c2ccc(-c3ccccc3)cc2)cs1)C(C)(C)C)C(=O)NS(=O)(=O)C1CC1 [Example 24] | 20 to 200 nM | 1 to 50 nM |  | 
C=C[C@@H]1C[C@]1(NC(=O)[C@@H]1C[C@@H](Oc2ncc(OC)c3ccc(Cl)cc23)CN1C(=O)[C@@H](Nc1nc(-c2cccc(C#N)c2)cs1)C(C)(C)C)C(=O)NS(=O)(=O)C1CC1 [Example 25] | 1 to 20 nM | 1 to 50 nM |  | 
C=C[C@@H]1C[C@]1(NC(=O)[C@@H]1C[C@@H](Oc2ncc(OC)c3ccc(Cl)cc23)CN1C(=O)[C@@H](Nc1nc(-c2cnccn2)cs1)C(C)(C)C)C(=O)NS(=O)(=O)C1CC1 [Example 26] | 1 to 20 nM | 1 to 50 nM |  | 
C=C[C@@H]1C[C@]1(NC(=O)[C@@H]1C[C@@H](Oc2ncc(OC)c3ccc(Cl)cc23)CN1C(=O)[C@@H](Nc1nc(-c2ccc(Cl)c(C)c2)cs1)C(C)(C)C)C(=O)NS(=O)(=O)C1CC1 [Example 27] |  |  | 2 nM | 5.26 nM
C=C[C@@H]1C[C@]1(NC(=O)[C@@H]1C[C@@H](Oc2ncc(OC)c3ccc(Cl)cc23)CN1C(=O)[C@@H](Nc1nc(-c2ccc(OC)cc2OC)cs1)C(C)(C)C)C(=O)NS(=O)(=O)C1CC1 [Example 28] | 1 to 20 nM | 1 to 50 nM |  | 
